Reference: patent publication US20040197299A1, “Topically applicable cosmetic/dermatological compositions comprising hydrolase polypeptides having amidase activity and/or products modulating the activity thereof” (SOCIETE L'OREAL, S.A., priority 2003, published 2004)

Columns and labels:
corneodesmosin = assay: Corneodesmosin signal after incubation of SC acetone powder with semi-purified AGA (immunoblot); type: biochemical; conditions: 8 hours, 37° C., pH 8
Description: An SC acetone powder obtained by the “varnish stripping” technique as described by Mehul B. et al. (2000, The Journal of Biological Chemistry, Vol. 275, No. 17, 12841-12847) is incubated with a semi-purified AGA extract in the presence or otherwise of 5 mM L-asparagine at the rate of 100 μl of incubation solution per mg of acetone powder. The incubations are carried out in 0.1 M Tris-HCl buffer, pH 8, at 37° C., for 8 hours, with stirring. A test t0 is made as well as a control: buffer alone.
The soluble proteins of each sample are then extracted under denaturing conditions (SDS, DTT and boiling). The total proteins are assayed according to the Bradford method and the concentrations are aligned at 0.6 mg/ml in Laemmli extraction buffer.
An SDS-PAGE separation is then carried out, followed by a transfer onto PVDF membrane marketed by Millipore. The corneodesmosin is immunodetected with the monoclonal antibody G3619 described in Serre G. et al. (1991, J. Invest. Dermatol., 97, 1061-1072) diluted 1/12500.
Each blot is then stained with a 0.03% amido black solution (SIGMA) in order to normalize the quantity of corneodesmosin relative to a quantification of the keratins.
FIG. 2 presents the variation of the corneodesmosin signal after incubation of various quantities of semi-purified AGA with an acetone powder for 8 hours.

[1] = molecular target: T1, AGA activity purified from the SC (aspartylglucosaminidase, EC 3.5.1.26) (Homo sapiens, UniProt P20933); assay: AGA activity assay with the fluorescent substrate Asp-AMC; type: biochemical; conditions: L-asparagine used at 1.25 mM
T1 construct: led to the identification of the A chain of AGA (band of 24 kDa); and of the B chain of AGA (bands of 16 and 15 kDa); from tissue; host or cells: human stratum corneum, scraped from the anterior surface of the leg
T1 sequence (P20933 24-205 limits assumed): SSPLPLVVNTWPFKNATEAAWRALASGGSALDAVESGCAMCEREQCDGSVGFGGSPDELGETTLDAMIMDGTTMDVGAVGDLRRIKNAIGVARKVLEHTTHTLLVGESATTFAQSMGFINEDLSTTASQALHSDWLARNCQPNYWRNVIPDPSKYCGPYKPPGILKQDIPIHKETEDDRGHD
T1 sequence (P20933 206-346 limits assumed): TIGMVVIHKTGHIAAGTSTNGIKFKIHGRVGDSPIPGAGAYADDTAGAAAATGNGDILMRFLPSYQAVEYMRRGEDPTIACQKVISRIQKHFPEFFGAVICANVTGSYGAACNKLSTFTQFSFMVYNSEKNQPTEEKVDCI
Description: The purification of AGA is monitored by assaying of activity with the fluorescent substrate L-aspartic acid beta(7-amido-4-methylcoumarin) (Asp-AMC) according to the method described by Mononen I. T. et al., 1993, Analytical Biochemistry, 208, 372-374. 10 μl of each eluted fraction are incubated for 24 h at 37° C. with 100 μl of Asp-AMC substrate diluted to 1 mM in 0.1 M Tris-HCl buffer, pH 8. The fluorescence is quantified on a Biolumin reader (excitation/emission: 340/450 nm).
The AGA activity was assayed with the substrate Asp-AMC in various SC extracts.

| Molecule | variation of the quantity of corneodesmosin (prodesquamating effect) (corneodesmosin; SC acetone powder incubated with increasing quantities of semi-purified AGA) | inhibition of the AGA activity purified from the SC [1] | inhibition of the AGA-induced decrease in corneodesmosin (corneodesmosin; L-asparagine at 5 mM, 10 μl of AGA condition) |
| --- | --- | --- | --- |
| aspartylglucosaminidase AGA (EC 3.5.1.26) | decrease in the quantity of corneodesmosin |  |  |
| NC(=O)C[C@H](N)C(=O)O [L-asparagine] |  | inhibit the AGA activity | inhibits this effect |
